{"source": "paper PMC6385203", "about": "“Mutations in the palm domain disrupt modulation of acid-sensing ion channel 1a currents by neuropeptides” (Scientific Reports, 2019)", "key": {"ASIC1a F302C": {"system": "ASIC1a F302C", "assay": "Modification of Cys mutant by MTSET", "format": "cell-based, human", "settings": "1 mM MTSET 3 min, pH dependence of activation and SSD, n=4-6", "description": "(§1) Figure S2. Modification of Cys mutants by MTSET. To determine whether exposure to MTSET modified specific Cys mutants, we applied pH protocols that detect shifts in the pH dependence of activation and of steady-state desen sitization (SSD) to ASIC1a-e xpressing oocytes, before and after a 3-min exposure to 1mM MTSET. a, illustration of the experimental protocol at the example of the E97C mutant. The acidic solution was applied once every minute, except during the incubation with MTSET. b, ratio of current amplitudes obtained at pH6.5 and pH5 from the conditioning pH7.4, as a measure of the pH dependence of activation, before (open bars) and after MTSET expo sure (red bars). c, ratio of the current amplitude at pH5 from the conditioning pH7.15 / the current amplitude at pH5 obtained from the conditioning pH7.4, as an indication of the pH dependence of SSD, n=4-6. *, p<0.05; **, p<0.01; ***, p<0.001; ****, p<0.0001; different between control and MTSET condition, […]\n(§2) WT ASIC1a3,4. If a functional property is changed after MTSET incubation and its washout, it is concluded that the engineered Cys residue has been modified by MTSET. This analysis […]\n(§3) (1 picture or pasted object on this page, not shown here)"}, "ASIC1a E97C": {"system": "ASIC1a E97C", "assay": "Modification of Cys mutant by MTSET", "format": "cell-based, human", "settings": "1 mM MTSET 3 min, pH dependence of activation and SSD, n=4-6", "description": "as §1, §2, §3"}, "ASIC1a S240C": {"system": "ASIC1a S240C", "assay": "Modification of Cys mutant by MTSET", "format": "cell-based, human", "settings": "1 mM MTSET 3 min, pH dependence of activation and SSD, n=4-6", "description": "as §1, §2, §3"}, "ASIC1a E242C": {"system": "ASIC1a E242C", "assay": "Modification of Cys mutant by MTSET", "format": "cell-based, human", "settings": "1 mM MTSET 3 min, pH dependence of activation and SSD, n=4-6", "description": "as §1, §2, §3"}, "ASIC1a L280C": {"system": "ASIC1a L280C", "settings": "L280C mutant; cited from earlier work", "text": "(§4) Based on in silico docking, mutagenesis and functional validation, our study points to the side cavities of the central vestibule as the most probable binding sites for the peptide FRRFa. […] The 40-amino acid peptide toxin PcTx1 binds into the acidic pocket and to the subunit interface ..."}, "[1]": {"system": "ENaC/degenerin ion channel family", "settings": "cited from earlier work", "text": "(§5) FaNaC-like channels have been described in mollusks and Hydra[8]–[10], but not in mammals. Mammals express FMRFa-related peptides that exert their pharmacological actions mainly by binding to G protein-coupled receptors. Mammalian FMRFa-like peptides contain more than four residues. Since they ..."}, "ASIC1a [2]": {"system": "ASIC1a", "settings": "cited from earlier work; for competition between functional effects: PcTx1 vs big dynorphin", "text": "as §4"}, "ASIC1a [3]": {"system": "ASIC1a", "settings": "cited from earlier work", "description": "Currently it is not known where in the ASICs the RFa peptides bind. […] Our docking studies predicted possible b ... || ASIC1a function was measured by two-electrode voltage-clamp after recombinant expression in Xenopus oocytes. The channels were activated by a pH5 stimulation solution from a conditioning solution of pH7.4. […] We measured the rate of FRRFa unbinding, as the disappearance of the sustained current after a 50-s incubation with 50 μM FRRFa, as 0.025 ± 0.005 s^−1 (n = 8, Fig. 2b)."}, "FaNaC": {"system": "FaNaC", "settings": "molluscan FaNaC; cited from earlier work", "text": "as §5"}, "[4]": {"system": "ASIC1- and ASIC3-containing channels", "settings": "FMRFa and related peptides; cited from earlier work", "text": "as §5"}}, "note": "Entries after “also recorded” stand apart in the source; their conditions may differ. Ends that are not written are not given here."}
{"compound": "C[N+](C)(C)CCSS(C)(=O)=O", "note": "[MTSET, [2-(trimethylamonium)ethyl] methanethiosulfonate]", "values": [{"measurement": "modification by MTSET", "setting": "ASIC1a F302C", "result": "evidence for modification by MTSET"}, {"measurement": "modification by MTSET", "setting": "ASIC1a E97C", "result": "evidence for modification by MTSET; also recorded: exposure to MTSET changes the properties of the mutants E97C, S240C and E242C"}, {"measurement": "modification by MTSET", "setting": "ASIC1a S240C", "result": "evidence for modification by MTSET; also recorded: exposure to MTSET changes the properties of the mutants E97C, S240C and E242C"}, {"measurement": "modification by MTSET", "setting": "ASIC1a E242C", "result": "evidence for modification by MTSET; also recorded: exposure to MTSET changes the properties of the mutants E97C, S240C and E242C"}, {"measurement": "effect of MTSET modification on sustained current fraction", "setting": "ASIC1a L280C", "result": "strongly increases the sustained current fraction"}]}
{"compound": "N=C(N)NC(=O)c1nc(Cl)c(N)nc1N", "note": "[amiloride]", "values": [{"measurement": "inhibition of ENaC/degenerin channels", "setting": "[1]", "result": "inhibited by amiloride"}]}
{"compound": "PcTx1: 40-amino acid peptide toxin PcTx1 (EDCIPKWKGCVNRHGDCCEGLECWKRRRSFEVCVPKTPKT; ends and bridges not checked; cysteine pairing not given here; UniProt P60514 1-40, looked up)", "values": [{"measurement": "competition between functional effects", "setting": "ASIC1a [2]", "result": "a competition between the functional effects of PcTx1 and the peptide big dynorphin"}]}
{"compound": "Phe-Met-Arg-Phe-amide [FMRFa]", "values": [{"measurement": "requirement of pre-application", "setting": "ASIC1a [3]", "result": "affect ASIC1a currents only when pre-applied with the conditioning solution at pH 7.4"}, {"measurement": "channel activation", "setting": "FaNaC", "result": "activated by the neuropeptide Phe-Met-Arg-Phe-amide (FMRFa)"}, {"measurement": "effects on ASIC desensitization, sustained current and SSD", "setting": "[4]", "result": "slow the desensitization time course of ASIC1- and ASIC3-containing channels and induce a sustained (non-desensitizing) current as well as an acidic shift in the SSD pH dependence of ASIC1a"}]}
{"compound": "big dynorphin: a remotely related Arg-rich 32-amino acid peptide", "values": [{"measurement": "competition between functional effects", "setting": "ASIC1a [2]", "result": "a competition between the functional effects of PcTx1 and the peptide big dynorphin"}, {"measurement": "modulation of ASIC1a", "setting": "ASIC1a [2]", "result": "modulates ASIC1a in a similar way as RFa peptides do"}]}
